The values that follow are results of earlier work, collected in patent publication US12312370B2, “Immunoproteasome inhibitors” (Principia Biopharma Inc., priority 2017, dated 2025).

Data set [1] deals with murine DSS-induced colitis model. The conditions noted are these: cited from earlier work.
Data set [2] concerns murine collagen-induced arthritis. The conditions noted are these: cited from earlier work.
The test system of data set [3] is Th1/17 differentiation. The conditions noted are these: human; cited from earlier work.
For data set [4], the system named is Hashimoto's thyroiditis model. The conditions noted are these: autoantibody-driven Hashimoto's thyroiditis model; cited from earlier work.
Data set [5] relates to Th1/17 differentiation. The conditions noted are these: mouse; cited from earlier work.
The subject of the next data set is MRL/lpr lupus model. The conditions noted are these: cited from earlier work.
For data set [6], the system named is multiple myeloma cell lines and primary patient tumor cells. The conditions noted are these: including those resistant to conventional and novel prior therapies; cited from earlier work.
The test system of the next data set is prostate PC-3 cell line. The conditions noted are these: PC-3 cell line in vitro; cited from earlier work.
A further data set relates to tumor growth. The conditions noted are these: in vivo; cited from earlier work.

Where two headings read alike, the source gives them in different places.

For `COc1ccc(C[C@H](NC(=O)[C@H](C)NC(=O)CN2CCOCC2)C(=O)N[C@@H](Cc2ccccc2)C(=O)[C@@]2(C)CO2)cc1` [PR-957], the “inflammation and tissue destruction” value in [1] is “reduced inflammation and tissue destruction”. Further, the disease activity entry in data set [2] was “significantly inhibit disease activity”. Further, the Th1/17 differentiation result in the data set on Th1/17 differentiation [3] is on record as “potently block”. In addition, the efficacy entry in data set [4] was “efficacious”. In the data set with Th1/17 differentiation [5], the Th1/17 differentiation entry is “potently block”. Further, in the data set on MRL/lpr lupus model, the disease progression result is “prevented disease progression”; the “plasma cell numbers and anti-dsDNA IgG levels” value was “reduced plasma cell numbers and anti-dsDNA IgG levels”.
For the molecule `CC1=C(C(=O)N[C@H](C)C(=O)N[C@@H](Cc2c[nH]c3ccccc23)C(=O)N[C@@H](Cc2ccccc2)C(=O)[C@@]2(C)CO2)Cc2ccccc21` [PR-924], the “growth of multiple myeloma cell lines and primary patient tumor cells” value in data set [6] was “inhibit growth”.
As for `CCCCCCC(=O)N[C@@H](C)C(=O)N[C@@H](CC(C)C)C(=O)[C@@]1(CO[Si](C)(C)C(C)(C)C)CO1` [UK-101], the apoptosis result in the data set with prostate PC-3 cell line is listed as “induced apoptosis”. For the same molecule, the tumor growth result with tumor growth is reported as “significantly suppressed tumor growth”.
